Read-outs that look alike come from different tables or passages of the source.
Assays:
MCF-7 = experiment: MTT assay on cancer cell line MCF-7; assay type: cell-based, Human; conditions: for inhibition at 10 µM: Homo sapiens; for In vitro cell inhibition, % of inhibition, MCF-7: at 10µM
Description: (§1) Cell culture, growth conditions and treatments. […] Different molecules were dissolved in DMSO and were delivered to cell cultures in complete medium.

CDK-9/Cyclin T1 = CDK-9/Cyclin T1 (Homo sapiens, UniProt P50750); experiment: CDK inhibition assay, CDK-9/Cyclin T1 against substrate peptide, 33P-ATP; assay type: biochemical; conditions: at 500 nM
Description: (50-1000 cpm/pmole) and incubated for 30 min at room temperature. Assays were stopped by addition of 5 µl of 0.5 M (3%) orthophosphoric acid and then harvested onto P81 Unifilter plates with a wash buffer of 50 mM orthophosphoric acid.

PC-3 = experiment: MTT assay on cancer cell line PC-3; assay type: cell-based, human; conditions: for inhibition at 10 µM: Homo sapiens; for In vitro cell inhibition, % of inhibition, PC-3: at 10µM
Description: as §1

HCT-116 = experiment: MTT assay on cancer cell line HCT-116; assay type: cell-based, human; conditions: for inhibition at 10 µM: Homo sapiens
Description: as §1

CDK-2/cyclin A = CDK-2/cyclin A (Homo sapiens, UniProt P24941); experiment: CDK inhibition assay, CDK-2/cyclin A against Histone HI, 33P-ATP; assay type: biochemical; conditions: at 500 nM
Procedure, shortened: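 CDK-2/cyclin A (5-20 mU) phosphorylating Histone HI (1 mg/ml) in 50 mM Hepes pH 7.5, 100 mM NaCl, 10 mM Mg acetate, 0.02 mM [33P-γ-ATP], 30 min at room temperature. Stopped with orthophosphoric acid, captured on P81 filters for radiometric readout.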

MDA-MB435 = experiment: MTT assay on cancer cell line MDA-MB435; assay type: cell-based, Human; conditions: for inhibition at 10 µM: Homo sapiens, MDA-MB-435
Description: as §1

SHSY-5Y = experiment: MTT assay on cancer cell line SHSY-5Y; assay type: cell-based, human; conditions: for inhibition at 10 µM: Homo sapiens, SH-SY5Y; for In vitro cell inhibition, % of inhibition, SHSY-5Y: at 10µM
Description: as §1

[1] = MCF7, MCF-7, Table 8, read-out: In vitro cell inhibition, % of inhibition, MCF-7
[2] = MCF7, read-out: inhibition against MCF-7 cell lines
[3] = Table-6, read-out: In vitro CDK9 % of inhibition
[4] = read-out: inhibition against CDK9
[5] = Table 8, read-out: In vitro cell inhibition, % of inhibition, PC-3
[6] = read-out: inhibition against PC-3 cell lines
[7] = at 10µM, Table 8, read-out: In vitro cell inhibition, % of inhibition, HCT-116
[8] = Table-6, read-out: In vitro CDK2 % of inhibition
[9] = read-out: inhibition against CDK2
[10] = MDA-MB435, at 10µM, Table 8, read-out: In vitro cell inhibition, % of inhibition, MDA-MB435
[11] = SHSY-5Y, Table 8, read-out: In vitro cell inhibition, % of inhibition, SHSY-5Y
[12] = read-out: inhibition against SHSY-5Y cell lines
[13] = Table-7, read-out: In vitro CDK9 % of inhibition
[14] = Table-7, read-out: In vitro CDK2 % of inhibition
[15] = at 10 µM, read-out: inhibition against HCT-116 cell lines
[16] = at 10 µM, read-out: inhibition against MDAMB-435 cell lines
[17] = MCF7, MCF-7, Table 9 (for reference), read-out: In vitro cell inhibition, % of inhibition, MCF-7
[18] = Table 9 (for reference), read-out: In vitro cell inhibition, % of inhibition, PC-3
[19] = at 10µM, Table 9 (for reference), read-out: In vitro cell inhibition, % of inhibition, HCT-116
[20] = MDA-MB435, at 10µM, Table 9 (for reference), read-out: In vitro cell inhibition, % of inhibition, MDA-MB435
[21] = SHSY-5Y, Table 9 (for reference), read-out: In vitro cell inhibition, % of inhibition, SHSY-5Y

Sequence of CDK-9/Cyclin T1 (P50750 whole entry): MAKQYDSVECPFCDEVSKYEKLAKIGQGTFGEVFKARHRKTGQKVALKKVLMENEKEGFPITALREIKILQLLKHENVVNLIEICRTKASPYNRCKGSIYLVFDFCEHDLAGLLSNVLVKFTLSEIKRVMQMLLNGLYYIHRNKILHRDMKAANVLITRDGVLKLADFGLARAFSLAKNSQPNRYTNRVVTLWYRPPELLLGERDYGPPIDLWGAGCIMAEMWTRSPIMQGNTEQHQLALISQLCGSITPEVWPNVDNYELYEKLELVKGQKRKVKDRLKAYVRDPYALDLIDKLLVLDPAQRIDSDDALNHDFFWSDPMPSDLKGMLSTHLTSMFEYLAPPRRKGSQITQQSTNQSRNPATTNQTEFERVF
Sequence of CDK-9/Cyclin T1 (O60563 whole entry partner): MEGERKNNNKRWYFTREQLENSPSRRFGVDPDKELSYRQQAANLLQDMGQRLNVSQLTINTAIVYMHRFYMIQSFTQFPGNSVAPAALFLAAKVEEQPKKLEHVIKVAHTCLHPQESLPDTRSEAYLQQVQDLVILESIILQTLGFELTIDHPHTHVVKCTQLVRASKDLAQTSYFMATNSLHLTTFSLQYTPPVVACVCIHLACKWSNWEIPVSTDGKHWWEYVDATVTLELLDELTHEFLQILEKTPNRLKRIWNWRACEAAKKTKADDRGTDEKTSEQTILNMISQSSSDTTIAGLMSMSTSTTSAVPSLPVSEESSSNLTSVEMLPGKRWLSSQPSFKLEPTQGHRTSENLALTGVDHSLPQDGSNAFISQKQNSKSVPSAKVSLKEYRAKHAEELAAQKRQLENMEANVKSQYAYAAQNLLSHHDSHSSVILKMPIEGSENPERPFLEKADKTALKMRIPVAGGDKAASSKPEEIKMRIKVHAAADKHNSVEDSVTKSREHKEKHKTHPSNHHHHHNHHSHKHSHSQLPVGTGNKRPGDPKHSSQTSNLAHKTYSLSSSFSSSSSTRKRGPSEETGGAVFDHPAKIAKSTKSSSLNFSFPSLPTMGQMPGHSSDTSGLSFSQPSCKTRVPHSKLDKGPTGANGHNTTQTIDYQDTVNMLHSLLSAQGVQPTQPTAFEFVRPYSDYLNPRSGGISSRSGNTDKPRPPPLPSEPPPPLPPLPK

SMILES	inhibition at 10 µM (MCF-7; [1]) [%]	inhibition at 10 µM (MCF-7; [2]) [%]	inhibition at 0.5 µM (CDK-9/Cyclin T1; [3]) [%]	inhibition at 0.5 µM (CDK-9/Cyclin T1; [4]) [%]	inhibition at 10 µM (PC-3; [5]) [%]	inhibition at 10 µM (PC-3; [6]) [%]	inhibition at 10 µM (HCT-116; [7]) [%]	inhibition at 0.5 µM (CDK-2/cyclin A; [8]) [%]	inhibition at 0.5 µM (CDK-2/cyclin A; [9]) [%]	inhibition at 10 µM (MDA-MB435; [10]) [%]	inhibition at 10 µM (SHSY-5Y; [11]) [%]	inhibition at 10 µM (SHSY-5Y; [12]) [%]	inhibition at 0.5 µM (CDK-9/Cyclin T1; [13]) [%]	inhibition at 0.5 µM (CDK-2/cyclin A; [14]) [%]	other results
Fc1ccc(-c2cnc3[nH]cc(-c4ccnc(NC5CCCCCC5)n4)c3c2)cc1 [1A42, N-cycloheptyl-4-(5-(4-fluorophenyl)-1H-pyrrolo[2,3-b]pyridin-3-yl)pyrimidin-2-amine]	< 50	< 50	> 50	> 50	> 50	> 50	> 50	> 50	> 50	> 70	> 70	> 70	–	–	–
FC(F)(F)c1ccc(-c2cnc3[nH]cc(-c4ccnc(NCCc5ccccc5)n4)c3c2)cc1 [1B1, N-phenethyl-4-(5-(4-(trifluoromethyl)phenyl)-1H-pyrrolo[2,3-b]pyridin-3-yl)pyrimidin-2-amine]	> 50	> 50	–	–	> 70	–	> 50	–	–	< 50	> 70	> 70	< 50	< 50	–
FC(F)(F)c1ccc(-c2cnc3[nH]cc(-c4ccnc(NC5CCCCCC5)n4)c3c2)cc1 [1A41, N-cycloheptyl-4-(5-(4-(trifluoromethyl)phenyl)-1H-pyrrolo[2,3-b]pyridin-3-yl)pyrimidin-2-amine]	> 50	> 50	< 50	–	< 50	–	> 50	< 50	–	< 50	> 70	> 70	–	–	–
c1cncc(-c2cnc3[nH]cc(-c4ccnc(NC5CC5)n4)c3c2)c1 [1A15, N-cyclopropyl-4-(5-(pyridin-3-yl)-1H-pyrrolo[2,3-b]pyridin-3-yl)pyrimidin-2-amine]	> 70	> 70	> 50	> 50	> 50	> 50	> 70	> 50	> 50	> 70	> 70	> 70	–	–	inhibition at 10 µM (HCT-116; [15]): > 70%; inhibition at 10 µM (MDA-MB435; [16]): > 70%
CSc1ccccc1-c1cnc2[nH]cc(-c3ccnc(N)n3)c2c1 [1C9, 4-(5-(2-(methylthio)phenyl)-1H-pyrrolo[2,3-b]pyridin-3-yl)pyrimidin-2-amine]	–	> 70	–	> 70	–	–	–	–	> 70	–	–	> 70	> 70	> 70	inhibition at 10 µM (MCF-7; [17]): > 70%; inhibition at 10 µM (PC-3; [18]): > 70%; inhibition at 10 µM (HCT-116; [19]): > 50%; inhibition at 10 µM (MDA-MB435; [20]): > 70%; inhibition at 10 µM (SHSY-5Y; [21]): > 70%
c1ccc(CCNc2nccc(-c3c[nH]c4ncc(-c5cccnc5)cc34)n2)cc1 [1B15, N-phenethyl-4-(5-(pyridin-3-yl)-1H-pyrrolo[2,3-b]pyridin-3-yl)pyrimidin-2-amine]	> 50	> 50	–	> 70	< 50	–	> 50	–	> 70	< 50	> 70	> 70	> 70	> 70	–
Fc1ccc(-c2cnc3[nH]cc(-c4ccnc(NC5CCCC5)n4)c3c2)cc1 [1A22, N-cyclopentyl-4-(5-(4-fluorophenyl)-1H-pyrrolo[2,3-b]pyridin-3-yl)pyrimidin-2-amine]	> 50	> 50	> 50	–	> 50	–	> 50	> 50	–	< 50	> 70	> 70	–	–	–
Nc1nccc(-c2c[nH]c3ncc(-c4cccc(C(F)(F)F)c4)cc23)n1 [1C4, 4-(5-(3-(trifluoromethyl)phenyl)-1H-pyrrolo[2,3-b]pyridin-3-yl)pyrimidin-2-amine]	–	> 70	–	> 70	–	–	–	–	> 70	–	–	> 70	> 70	> 70	inhibition at 10 µM (MCF-7; [17]): > 70%; inhibition at 10 µM (PC-3; [18]): < 50%; inhibition at 10 µM (HCT-116; [19]): > 70%; inhibition at 10 µM (MDA-MB435; [20]): > 70%; inhibition at 10 µM (SHSY-5Y; [21]): > 70%
Clc1ccc(-c2cnc3[nH]cc(-c4ccnc(NC5CC5)n4)c3c2)cc1 [1A12, 4-(5-(4-chlorophenyl)-1H-pyrrolo[2,3-b]pyridin-3-yl)-N-cyclopropylpyrimidin-2-amine]	> 70	> 70	> 70	> 70	> 50	> 50	> 70	> 70	> 70	> 70	> 70	> 70	–	–	inhibition at 10 µM (HCT-116; [15]): > 70%; inhibition at 10 µM (MDA-MB435; [16]): > 70%
COc1ccc(-c2cnc3[nH]cc(-c4ccnc(NCCc5ccccc5)n4)c3c2)cc1 [1B11, 4-(5-(4-methoxyphenyl)-1H-pyrrolo[2,3-b]pyridin-3-yl)-N-phenethylpyrimidin-2-amine]	> 50	> 50	–	> 50	< 50	–	> 50	–	> 50	> 50	> 50	–	> 50	> 50	–
COc1ccc(-c2cnc3[nH]cc(-c4ccnc(NC5CCCC5)n4)c3c2)cc1 [1A31, N-cyclopentyl-4-(5-(4-methoxyphenyl)-1H-pyrrolo-[2,3-b]pyridin-3-yl)pyrimidin-2-amine]	< 50	< 50	> 50	> 50	> 50	> 50	> 50	> 50	> 50	> 50	> 70	> 70	–	–	–
Nc1nccc(-c2c[nH]c3ncccc23)n1 [Meriolin 1, reference compound]	–	–	–	–	–	–	–	–	–	–	–	–	–	–	In vitro cell inhibition, % of inhibition, MCF-7 (MCF-7; Table 8): ++ (++ indicates greater than 50% of inhibition (++ >50% of inhibition)); In vitro cell inhibition, % of inhibition, MCF-7 (MCF-7; Table 9 (for reference)): ++ (++ indicates greater than 50% of inhibition (++ > 50% of inhibition)); In vitro CDK9 % of inhibition (CDK-9/Cyclin T1; Table-6): +++ (+++ indicates greater than 70% of inhibition (+++ >70% of inhibition)); In vitro cell inhibition, % of inhibition, PC-3 (PC-3; Table 8): ++ (++ indicates greater than 50% of inhibition (++ >50% of inhibition)); In vitro cell inhibition, % of inhibition, PC-3 (PC-3; Table 9 (for reference)): ++ (++ indicates greater than 50% of inhibition (++ > 50% of inhibition)); In vitro cell inhibition, % of inhibition, HCT-116 (HCT-116; at 10µM, Table 8): ++ (++ indicates greater than 50% of inhibition (++ >50% of inhibition)); In vitro cell inhibition, % of inhibition, HCT-116 (HCT-116; at 10µM, Table 9 (for reference)): ++ (++ indicates greater than 50% of inhibition (++ > 50% of inhibition)); In vitro cell inhibition, % of inhibition, MDA-MB435 (MDA-MB435; MDA-MB435, at 10µM, Table 8): ++ (++ indicates greater than 50% of inhibition (++ >50% of inhibition)); In vitro cell inhibition, % of inhibition, MDA-MB435 (MDA-MB435; MDA-MB435, at 10µM, Table 9 (for reference)): ++ (++ indicates greater than 50% of inhibition (++ > 50% of inhibition)); In vitro cell inhibition, % of inhibition, SHSY-5Y (SHSY-5Y; SHSY-5Y, Table 8): +++ (+++ indicates greater than 70% of inhibition (+++ >70% of inhibition)); In vitro cell inhibition, % of inhibition, SHSY-5Y (SHSY-5Y; SHSY-5Y, Table 9 (for reference)): +++ (+++ indicates greater than 70% of inhibition (+++ >70% of inhibition))
